How the values were obtained:
Aβ42 fibrils = molecular target: T1, Aβ42 fibrils (Homo sapiens, UniProt P05067); assay: Fluorescence emission before and after mixing with Aβ42 fibrils; format: binding; conditions: compound 1 μM
T1 construct: The monomers, oligomers and fibrils of Aβ42 were prepared according to established protocols and confirmed by TEM
Procedure: FIG. 9. Fluorescence emission of 14 (1 μM) before and after mixing with Aβ42 fibrils.
To examine the change of fluorescence properties upon binding to Aβ42, we compared the fluorescence properties of free 14 in aqueous solution to its fluorescence properties in the presence of Aβ42 fibrils as this chemical probe will be used to detect Aβ plaques. […] A blue shift in the emission spectra of 10 nm was also observed upon association with Aβ42 fibrils.

[1] = BBB permeability in B6C3F1 mice, brain tissue analysed by HPLC; format: in vivo
Procedure: FIG. 10. Compound 14 can cross the blood brain barrier (BBB) of B6C3F1 mice. Compound 14 (10 mg/kg) was given to B6C3F1 female mice (n=3) by i.v. administration through tail-vein. Then the animals were sacrificed at indicated time intervals and the brain tissues were collected and analyzed by HPLC using C18 column.
An appropriate fluorescent probe must cross the BBB and selectively bind to Aβ plaques. […] Here, we further assessed the BBB permeability of 14 using female B6C3F1 mice combined with HPLC analysis. […] The results may indicate that 14 can rapidly cross the BBB and reach the brain tissue and is metabolized in a reasonable time window (˜3 hrs) that allows clinical operation. 14 appears to violate all of the empirical rules of BBB permeability with a molecule weight >1000 Da and being more lipophilic (log P>3). However, we also realize that there are exceptions and that compounds with molecular weight more than 1000 Da can efficiently cross the BBB and reach brain tissue.

Aβ42 = molecular target: T2, Aβ42 (Homo sapiens, UniProt P05067); assay: Aβ42 oligomerization inhibition assay (Western blot); format: biochemical; conditions: Aβ42 5 μM, compound 20 μM, 4 hrs at 37° C.
T2 construct: Aβ42 was obtained from American Peptide, Inc. (Sunnyvale, Calif.); purchased American Peptide, Inc. (Sunnyvale, Calif.)
T2 sequence (P05067 672-713 limits assumed): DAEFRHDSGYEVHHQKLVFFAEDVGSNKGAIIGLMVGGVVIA
Procedure: In order to confirm 14 can bind to AβOs, the inhibition of Aβ42 oligomerization was performed and assessed using Western blot analysis as described in literature^29 in order to investigate binding interactions of 14 with Aβ42 and the CM/LR of MC65 cells. Briefly, Aβ42 (5 μM) was incubated with or without compounds (20 μM), then samples were analyzed by Western blot using 6E10 antibody.
Aβ42 oligomerization inhibition assay. An aliquot of Aβ42 (0.045 mg) was dissolved in 20 μL of DMSO and diluted in Ham's F-12 media without phenol red (Caisson's Laboratory, Inc., Utah). […] After incubation, the samples (50 μL) were spun down at 14,000×g for 10 min. The supernatant (20 μL) was mixed with an equal part of Tricine sample buffer without reducing agents (Bio-Rad). The unaggregated Aβ42 control was not incubated at 37° C., and mixed with sample buffer (no centrifuging) and stored at −80° C. before it was electrophoresed. Samples (25 μL) were electrophoresed on a 10-20% Tris-Tricine gel, transferred to PVDF membrane, and blocked with 10% nonfat milk in PBS for 30 min. […] The proteins were visualized by Western Blot Chemiluminescence Reagent (NEN Life Science Products, Boston, Mass.).

extracellular AβOs = assay: ML60 cell assay: ELISA for extracellular AβOs; format: cell-based, Chinese hamster; conditions: ML60 cells, 10 μM, 24 hrs
Procedure: Next, another cell line, ML60, was employed to evaluate the inhibition of AβOs production.
ML60 cell assay. Sandwich enzyme-linked immunoassays (ELISAs) for extracellular AβOs in ML60 cells were performed. ML60 cells (90% confluent) in 96-well plates were treated with test compounds (10 μM) at 37° C., 5% CO2 for 24 hrs. ML60 cells were centrifuged for 5 min at 6000 g, and supernatant media was collected for AβOs measurement by ELISA. The capture antibody 21F12 (to Aβ residues 33-42) was used for capturing both monomeric and oligomeric Aβ42 species. The detecting antibody was biotinylated 21F12B, and the combination of 21F12 and biotinylated 21F12B allows the detection of only AβOs. The 21F12 mAbs were coated at 10 mg/mL into 96-well immunoassay plates (Costar) at room temperature overnight. The plates were then aspirated and blocked with 0.25% human serum albumin in PBS buffer for 1 hr at room temperature. The plates were rehydrated with wash buffer (0.05% Tween 20 in TBS) before use. The samples were added to the plates and incubated at room temperature for 1 hr. The plates were washed 3× with wash buffer between each step of the assay. […] Reaction product was quantified using plate reader by measuring the difference in absorbance at 450 nm and 650 nm.

MC65 cells = assay: Cytotoxicity assay in MC65 cells (MTS, +TC/−TC); format: cell-based, human; conditions: 72 hrs
Excerpt: Protective effects of 14 on AβOs-induced cytotoxicity in MC65 cells and differentiated human neuroblastoma SH-SY5Y cells. […] To further verify whether 14 can protect cells from extracellular AβOs-induced cytotoxicity, all trans-retinoic acid differentiated human SH-SY5Y cells were employed. […] This may further indicate that while both 1 and 14 can bind to AβOs, CM/LR anchorage of 14 can increase its accessibility to intracellular target AβOs. Since CM/LR are crucial for many aspects of cell signaling and functions, 14 was further evaluated for its potential cytotoxicity in mouse spleen and natural killer (NK) cells.
Cytotoxicity assay in MC65 cells. MC65 cells were seeded in 96-well plates (4×10^4 cells/well) at 37° C., 5% CO2 for 24 hrs. The medium was removed and washed with PBS twice. Opti-MEM and test compounds were added under +TC and −TC conditions. The plates were incubated at 37° C., 5% CO2 for 72 hrs, then 20 uL CellTiter 96 AQueous One Solution (Promega, Madison, Wis.) were added to each well and the plates were incubated at 37° C., 5% CO2 for 2-4 hrs. The plates were read at 490 nm using FlexStation III plate reader (Molecular Devices). The blank with only test compounds in Opti-MEM was set up as background control for all of the tested concentrations. Each data point was averaged from six replicates and the experiments were independently repeated at least three times.

Aβ42 oligomers = molecular target: T3, Aβ42 oligomers (Homo sapiens, UniProt P05067); assay: Fluorescence polarization binding to Aβ42 oligomers; conditions: compound 1 μM, 3 hrs, read-out: apparent binding constant (Kd) for Aβ42 oligomers
T3 construct: The monomers, oligomers and fibrils of Aβ42 were prepared according to established protocols and confirmed by TEM
T3 sequence (P05067 672-713 limits assumed): as above
Procedure: (§1) FIG. 8A-C. BMAOI 14 binds to Aβ42 monomers, oligomers, and fibrils, but not BSA. A. The monomers, oligomers and fibrils of Aβ42 were prepared according to established protocols and confirmed by TEM; B. Compound 14 (1 μM) was incubated with different forms of Aβ42 at indicated concentrations for 3 hrs. Then, fluorescence polarization change of 14 was recorded and the binding affinity was calculated; C. Compound 14 was incubated with BSA as described in B and the binding affinity was calculated.
(§2) To determine the binding affinity of 14 to Aβ, we evaluated changes in fluorescence polarization values of this probe at different 14:Aβ ratios for monomeric, oligomeric, and fibrillary Aβ species, respectively. Aβ42 is chosen to evaluate the binding of probe as it is the major and most sticky amyloid peptide found in AD plaques.^1 The formation of different Aβ42 species was confirmed by transmission electron microscope (TEM) as shown in FIG. 8A. […] It appears that 14 binds to Aβ42 with micromolar affinity and slightly favors […] fibrils over monomers and oligomers.

splenocytes = assay: Anti-CD3 antibody mediated splenocyte proliferation; format: cell-based, B6C3F1 mice; conditions: 10 μM
Procedure: Anti-CD3 antibody mediated splenocyte proliferation. […] The splenocytes (2×10^5/well) were cultured in the microtiter wells coated with anti-CD3 Ab (1 μg/mL; BD PharMingen) in the presence of 1 or 14 (10 μM) at 37° C. in 5% CO2. Prior to harvest on day 3, the cells were pulsed with ^3H-thymidine for 18-24 hours. The incorporation of ^3H-thymidine into the proliferating cells was used as the endpoint of the assay, and the data were expressed as CPM/2×10^5 cells.

[2] = tested on: intracellular oxidative stress; assay: DCFH-DA antioxidation assay in MC65 cells; format: cell-based, human; conditions: −TC, 24 hrs
Procedure: DCFH-DA antioxidation assay. MC65 cells were seeded in 96-well plates (4×10^4 cells/well). After incubation at 37° C., 5% CO2 for 24 hrs, the medium was removed and washed with PBS. Opti-MEM and test compounds were added (+TC, −TC, and blank with only test compounds). MC65 cells were incubated at 37° C., 5% CO2 for 24 hrs. Then DCFH-DA in Opti-MEM was added to each well (final DCFH-DA concentration was 25 uM) and incubate at 37° C., 5% CO2 for 30 min. The medium was removed and replaced with fresh opti-MEM and plates were read for fluorescence intensity at 485 nm (excitation)/530 nm (emission) using FlexStation III plate reader (Molecular Devices).

[3] = molecular target: bovine serum albumin (BSA) (Bos taurus, UniProt P02769); assay: Fluorescence polarization binding to BSA; conditions: read-out: binding affinity to BSA (Kd)
bovine serum albumin (BSA), sequence (P02769 25-607): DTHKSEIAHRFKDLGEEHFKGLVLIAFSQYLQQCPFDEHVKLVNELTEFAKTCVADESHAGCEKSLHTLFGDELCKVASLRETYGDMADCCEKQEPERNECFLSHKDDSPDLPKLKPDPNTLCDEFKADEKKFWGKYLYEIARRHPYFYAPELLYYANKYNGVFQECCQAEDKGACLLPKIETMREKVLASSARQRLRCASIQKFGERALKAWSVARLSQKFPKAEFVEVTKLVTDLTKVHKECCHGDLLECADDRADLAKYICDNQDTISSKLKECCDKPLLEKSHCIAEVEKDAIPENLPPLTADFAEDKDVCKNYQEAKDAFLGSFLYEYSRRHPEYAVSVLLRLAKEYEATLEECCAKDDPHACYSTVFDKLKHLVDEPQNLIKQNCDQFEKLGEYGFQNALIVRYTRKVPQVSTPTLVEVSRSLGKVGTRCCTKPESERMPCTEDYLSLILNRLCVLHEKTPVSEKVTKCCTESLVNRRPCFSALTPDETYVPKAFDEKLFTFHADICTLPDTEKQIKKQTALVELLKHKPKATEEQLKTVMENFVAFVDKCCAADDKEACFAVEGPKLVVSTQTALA
Procedure: as §1, §2

Aβ42 monomers = molecular target: T4, Aβ42 monomers (Homo sapiens, UniProt P05067); assay: Fluorescence polarization binding to Aβ42 monomers; conditions: compound 1 μM, 3 hrs, read-out: apparent binding constant (Kd) for Aβ42 monomers
T4 construct: The monomers, oligomers and fibrils of Aβ42 were prepared according to established protocols and confirmed by TEM
T4 sequence (P05067 672-713 limits assumed): as the sequence (P05067 672-713 limits assumed) above
Procedure: as §1, §2

T1 sequence (P05067 672-713 limits assumed): as above

Compound: COc1cc(C=CC(=O)C(Cc2cn(CCCCCCNC(=O)CCNC(=O)CCNC(=O)COC3CCC4(C)C(=CCC5C4CCC4(C)C(C(C)CCCC(C)C)CCC54)C3)nn2)C(=O)C=Cc2ccc(O)c(OC)c2)ccc1O (stereo not drawn) [BMAOI 14]
- increase of emission intensity upon binding to Aβ42 fibrils (Aβ42 fibrils; Aβ42=5 μM, excitation 430 nm): 4.5 fold
- blue shift in the emission spectra upon association with Aβ42 fibrils (Aβ42 fibrils): 10 nm
- time window until disappearance from brain tissue ([1]; 10 mg/kg i.v.): ~3 h
- earliest time detected in brain tissue ([1]; 10 mg/kg i.v. tail-vein, female B6C3F1 mice): 10 min
- duration of presence in brain tissue ([1]; 10 mg/kg i.v., evident at 60 and 120 minutes): more than two hours
- inhibition of oligomerization of Aβ42 (Aβ42): inhibited the oligomerization of Aβ42
- production of extracellular AβOs (ELISA) (extracellular AβOs): inhibited the production of extracellular AβOs
- toxic effects on MC65 cell viability in the presence of TC (MC65 cells; +TC, tested concentrations, MTS): no toxic effects
- rescue of MC65 cell viability upon removal of TC (MC65 cells; −TC, 16 μM): nearly full rescue
- protective effects on MC65 cell viability upon removal of TC (MC65 cells; −TC, MTS): protected MC65 cell survival in a dose-dependent manner
- Kd (Aβ42 oligomers): 2170 nM
- cytotoxic effects in mouse spleen cells (splenocytes): minimal cytotoxic effects
- suppression of intracellular oxidative stress (DCFH-DA fluorescence) [2]: suppressed the intracellular oxidative stress in a dose-depndent manner
- Kd [3]: ~120000 nM
- Kd (Aβ42 monomers): 2030 nM

— patent US9260473B2, “Bivalent multifunctional ligands targeting Aβ oligomers as treatment for Alzheimer's disease” (Virginia Commonwealth University, priority 2010, dated 2016)
